Source: patent US11980616B2, “Treating liver disease by selectively eliminating senescent cells” (Buck Institute for Research on Aging, priority 2014, dated 2024)

Assays:
[1] = test system: IL-6 secretion by senescent IMR90 cells; test: IL-6 secretion ELISA in irradiated senescent IMR90 cells; format: cell-based, human; conditions: 10 μM for nine days, then six days without drug; ELISA normalized to cell number
Method: In another experiment, IMR90 cells were induced to senesce by irradiation (10 Gy). Seven days after irradiation, cells were treated with 10 μM Nutlin-3a or vehicle (DMSO) for nine days (Day 9). The drug or vehicle was refreshed every three days. Drug/vehicle was removed at Day 9 and the cells were cultured for an additional six days. Conditioned media from the treated cells was collected, and IL-6 measurement by ELISA was performed (Perkin Elmer, AL223F). IL-6 levels in culture media were determined by ELISA using a kit according to manufacturer's instructions (AL223F, Perkin Elmer). Cells were fixed with 4% paraformaldehyde and stained by immunofluorescence with a specific anti-IL-6 antibody (R&D, AF-206-NA). The IL-6 level determined by ELISA was normalized to the number of cells in each well. The data are presented in FIG. 22C as a relative level of IL-6 in the treated cells compared to the level in non-senescent cells (NS). The data are presented as an average of three different cell samples.

[2] = test system: non-senescent lung fibroblasts (Non Sen IMR90); test: Cell count toxicity assay, non-senescent IMR90; format: cell-based, human; conditions: 0, 2.5, 10 μM, 9 days
Method: (§1) Foreskin fibroblast cell lines HCA2 and BJ, lung fibroblast cell line IMR90, and mouse embryonic fibroblasts were seeded in six-well plates and induced to senesce with 10 Gy of ionizing radiation (IR) or a 24 hr treatment with doxorubicin (Doxo). Senescent phenotype was allowed to develop for at least 7 days, at which point a cell count was made to determine the baseline number of cells. Nutlin-3a treatment was then initiated for a period of at least 9 days. Media alone or media with drug as appropriate was refreshed at least every three days. At the end of the assay time period, cells are counted. Each condition was seeded in three plate wells and counted independently. Initial cell count serves as a control to determine the induction of senescence, as compared to the last day count without nutlin treatment. Initial non-senescent cell count serves as a proxy to determine Nutlin-3a toxicity.
Non-senescent foreskin fibroblasts (HCA2), lung fibroblasts (IMR90), and mouse embryonic fibroblasts (MEF) were treated with varying concentrations (0, 2.5 μM, and 10 μM) of Nutlin-3a for a period of 9 days to assess Nutlin-3a toxicity. Cell counts were taken at the start (NS start) and end of Nutlin-3a treatment. The difference between counts of cells not treated with Nutlin-3a on day 9 (NS 0) and cell counts determined at day zero (NS start) reflects the cell growth over the indicated time period. […]

[3] = test system: doxorubicin-treated (Doxo) senescent foreskin fibroblasts (HCA2); test: Cell count survival assay, doxorubicin-induced senescent HCA2; format: cell-based; conditions: Sen(Doxo) HCA2; 9 days
Method: as §1
Foreskin fibroblasts (HCA2) and aortic endothelial cells (Endo Aort) were treated with doxorubicin (250 nM) for one day (24 hours) to induce senescence (see FIG. 1). Eight days following doxorubicin treatment, Nutlin-3a treatment was initiated. HCA2 cells were exposed to Nutlin-3a for 9 days, and aortic endothelial cells were exposed to Nutlin-3a for 11 days. […] Percent survival was calculated as [cell count on the last day of Nutlin-3a treatment/initial cell count on first day of Nutlin-3a treatment].

[4] = test system: senescent lung fibroblasts (Sen(IR)IMR90); test: Cell count survival assay, irradiation-induced senescent IMR90; format: cell-based, human; conditions: 0, 2.5, 10 μM for 9 days
Method: as §1
Foreskin fibroblast cell lines HCA2 and BJ, lung fibroblast cell line IMR90, and mouse embryonic fibroblasts were exposed to 10 Gy of ionizing radiation (IR) to induce senescence. […] Percent survival was calculated as [cell count on day 9 of Nutlin-3a treatment/initial cell count on first day of Nutlin-3a treatment].

[5] = test system: 3MR mice exposed to bleomycin; test: Bleomycin induced lung injury model; format: in vivo, mouse
Method: One animal model study assessed the effect of clearance of senescence cells in the transgenic mouse strain 3MR that has bleomycin induced lung injury. In the bleomycin injury model for idiopathic pulmonary fibrosis, mice develop lung fibrosis within 7-14 days after bleomycin treatment (see, e.g., Limjunyawong et al., 2014, Physiological Reports 2:e00249; Daniels et al., 2004, J. Clin. Invest. 114:1308-1316). Bleomycin was administered to anesthetized 6-8 week old 3MR mice by intratracheal aspiration (2.5 U/kg of bleomycin in 50 μl PBS) using a microsprayer syringe (Penn-Century, Inc.) as described in Daniels et al. (2004, J. Clin. Invest. 114:1308-1316). Control mice were administered saline. The day following bleomycin treatment, ganciclovir (GCV) (25 mg/kg in PBS) was administered. 3MR mice were treated via intraperitoneal injection with ganciclovir for 5 consecutive days, followed by 5 days of rest, followed by a second treatment cycle of 5 consecutive days. Untreated mice received an equal volume of vehicle. At 7, 14, and 21 days post-bleomycin treatment, lung function was assessed by monitoring oxygen saturation using the MouseSTAT PhysioSuite pulse oximeter (Kent Scientific). Animals were anesthetized with isoflurane (1.5%) and a toe clip was applied. Mice were monitored for 30 seconds and the average peripheral capillary oxygen saturation (SpO2) measurement over this duration was calculated. […] At 21 days post-bleomycin treatment, airway hyper-reactivity (AHR) of mice was examined. AHR of mice was measured by methacholine challenge while other parameters of lung function (airway mechanics, lung volume and lung compliance) were determined using a SCIREQ flexiVent ventilator. While under ketamine/xylazine anesthesia and subjected to cannulation of the trachea via a tracheostomy (19Fr blunt Luer cannula), airway resistance (elastance) and compliance of mice were assessed at baseline and in response to increasing concentrations of methacholine (0 to 50 mg/ml in PBS) delivered via nebulization (AeroNeb) as described in Aravamudan et al. (Am. J. Physiol. Lung Cell. Mol. Physiol. (2012) 303:L669-L681). Animals were maintained at 37° C., and while under muscle paralysis (pancuronium); airway function was measured by using the FlexiVent™ ventilator and lung mechanics system (SCIREQ, Montreal, Quebec, Canada), which was housed on Stabile 8. […] As shown in FIGS. 60B-C, bleomycin administration reduced static compliance and (dynamic) compliance in vehicle treated mice. […] Mice were euthanized by i.p injection of pentobarbital. Bronchoalveolar lavage (BAL) fluids and lungs is obtained and analyzed. Hydroxyproline content of lungs is measured as described in Christensen et al. (1999, Am. J. Pathol. 155:1773-1779), and quantitative histopathology is performed. RNA is extracted from lung tissue to measure senescence cell markers by qRT-PCR in treated and control mice.

[6] = bleomycin exposed mouse, not statistically significant, group size too small
[7] = 25 mg/kg i.p., 21 days post-bleomycin

## COc1ccc(C2=N[C@@H](c3ccc(Cl)cc3)[C@@H](c3ccc(Cl)cc3)N2C(=O)N2CCNC(=O)C2)c(OC(C)C)c1 [Nutlin-3a]
[1]
  IL-6 level, fold lower than DMSO treated cells: 5-9 fold
[2]
  Proliferation (percent growth): reduces proliferation
  Toxicity (cell number vs starting level): non-toxic
[3]
  Percent survival: sensitive
[4]
  Percent survival: reduced cell survival
[5]; [6]
  Lung compliance: increased lung compliance
  Lung elastance: reduced lung elastance

## Nc1nc(O)c2ncn(COC(CO)CO)c2n1 [ganciclovir]
[5]; 25 mg/kg i.p., two cycles of 5 days, 7, 14, 21 days post-bleomycin
  Peripheral capillary oxygen saturation (SpO2): higher SpO2 levels
[5]; [7]
  Lung elastance: reduced lung elastance
  Static compliance and (dynamic) compliance: improved compliance values significantly
